The experiment has as its system proteoglycan induced arthritis. Put plainly: Proteoglycan induced arthritis (PGIA), intranasal pre-treatment. Format: in vivo, Balb/c mice. Conditions: Example 8: 30 μg intranasally on day −7, −5 and −3 before disease induction. From the text:
The proteoglycan induced arthritis model (PGIA) is a murine model of rheumatoid arthritis and is described to be a T-cell dependent and antibody mediated model. In the model arthritis is induced by two times injection of human proteoglycan (hPG) in a synthetic adjuvant dimethyldioctadecylammonium (DDA), see Hanyecz A. et al., Achievement of a synergistic adjuvant effect on arthritis induction by activation of innate immunity and forcing the immune response toward the Th1 phenotype. Arthritis Rheum. 2004 50(5):1665-76.
Because arthritis is induced by immunization with a synthetic adjuvant, instead of complete Freund's adjuvant (CFA), the role of interfering immune responses, induced by microbial Hsp's present in CFA, can be excluded. Due to cross reactive responses, between the human and the mouse (self) PG, a chronic and relapsing arthritis develops. After disease development, arthritis severity is scored by clinical assessment of thickness, redness and deformation of the joints on a scale of 1-4 per paw.
Ten female Balb/c mice, retired breeders obtained from Charles River, were randomly divided in two groups. To evaluate the effect of intra nasal treatment with Mycobacterial HSP70 (SEQ ID NO: 55) on PGIA 30 μg Hsp70 in 10 μl PBS was administered on day −7, −5 and −3 before disease induction. PGIA was induced by two times i.p. injection with 400 μg hPG and 2 mg DDA in 200 μl PBS. Subsequently developed arthritis scores were assessed by clinical evaluation as described in Example 7.
Fifteen female Balb/c mice, retired breeders obtained from Charles River, were randomly divided in three groups (five mice per group). To evaluate the effect of intranasal treatment with Hsp70-derived peptides “B1” (SEQ ID NO: 1) and a mixture of C1 (SEQ ID NO: 3) and mC1a (SEQ ID NO: 4) (designated herein as “C1mix”) on PGIA 100 μg peptide in 10 μl PBS was administered on day −7, −5 and −3 before disease induction. Ovalbumin peptide 323-339 (pOva) was used as a control peptide. PGIA was induced by two times i.p. injection with 400 μg hPG and 2 mg DDA in 200 μl PBS. Subsequently developed arthritis scores were assessed by clinical evaluation.
Twelve female Balb/c mice, retired breeders obtained from Charles River, were randomly divided in two groups (six mice per group). To evaluate the effect of intra nasal treatment with Hsp70 derived mC1 a on PGIA 100 μg peptide in 10 μl PBS was administered on day −14, −11, −7 and −4 before disease induction. Ovalbumin peptide (pOva) was used as a control peptide. PGIA was induced by two times i.p. injection with 400 μg hPG and 2 mg DDA in 200 μl PBS. Subsequently developed arthritis scores were assessed by clinical evaluation.
Eighteen female Balb/c mice, retired breeders obtained from Charles River, were randomly divided in three groups (six mice per group). To evaluate the effect of intranasal (i.n.) treatment with Hsp70 derived peptides C1 and its mouse homologue mC1a on PGIA 100 μg peptide in 10 μl PBS was administered on day −7, −5 and −3 before disease induction (see FIG. 28). Ovalbumin peptide (pOva) was used as a control peptide. PGIA was induced by two times i.p. injection with 300 μg hPG and 2 mg DDA in 200 μl PBS. Subsequently developed arthritis scores were assessed by clinical evaluation. • Group A: (pOva): Treated with 100 μg pOva in 10 μl PBS intranasally • Group B (C1): Treated with 100 μg C1 in 10 μl PBS intranasally • Group C (mC1a): Treated with 100 μg mC1a in 10 μl PBS intranasally

In the case of “HSP70: full length Mycobacterial HSP70 protein (SEQ ID NO: 55)”, the “arthritis development (arthritis score)” value is on record as “can suppress arthritis development”.
